US20110105389A1 (priority 2009, published 2011)
“And” between values parts separate entries of the source, which are not always exact repeats. Identical values can stand only once. Like-named read-outs stand apart in the source and are kept apart here.

Columns and labels:
CYP3A4 = CYP3A4 (Homo sapiens, UniProt P08684); assay: biochemical
CYP2D6 = CYP2D6 (Homo sapiens, UniProt P10635); assay: biochemical
[1] = test system: rat stomach fundus strips; assay: Ex-vivo potency evaluation on the rat stomach fundus (inhibition of ghrelin-induced contractility), Method B10; conditions: EFS
Description: B10. Ex-vivo Potency Evaluation on the Rat Stomach Fundus
Fundus strips (approximately 0.4×1 cm) were cut from the stomach of adult male Wistar rats parallel to the circular muscle fibers. They were placed between two platinum ring electrodes, 1 cm apart (Radnoti, ADlnstruments, USA) in 10 ml tissue baths containing Krebs solution bubbled with 5% CO2 in O2 and maintained at 37° C. Tissues were suspended under 1.5 g resting tension. Changes of tension were measured isometrically with force transducers and recorded with a PowerLab 8/30 data acquisition system (ADlnstruments, USA). Tissues were allowed to equilibrate for 60 min during which time bath solutions were changed every 15 min.
EFS was achieved by applying 0.5 ms pulses, 5 Hz frequency, at a maximally effective voltage of 70 V. EFS was applied for 30 sec at 3 min intervals for a 30 min initial period. This initial period was separated by a […] interval with wash out of the bath solution. Then, a second period of stimulation was started. […] Responses to the agents were measured and expressed as % of the mean of three or four pre-drug responses to EFS. All compounds were dissolved at 1 mM in distilled water or MeOH, as stock solutions.
IC50 values for the inhibition of ghrelin-induced contractility by representative compounds of the invention are presented in Table 7.

[2] = molecular target: T1, GHS-R1a receptor (HEK293 cells expressing GHS-R1a receptor) (Homo sapiens, UniProt Q92847); assay: Fluorescence functional assay (ghrelin receptor), Method B2, agonist and antagonist mode; format: cell-based; conditions: functional activity as an antagonist at the ghrelin receptor, Methods B2 and B3
T1 construct: host or cells: HEK293
T1 sequence (Q92847 whole entry): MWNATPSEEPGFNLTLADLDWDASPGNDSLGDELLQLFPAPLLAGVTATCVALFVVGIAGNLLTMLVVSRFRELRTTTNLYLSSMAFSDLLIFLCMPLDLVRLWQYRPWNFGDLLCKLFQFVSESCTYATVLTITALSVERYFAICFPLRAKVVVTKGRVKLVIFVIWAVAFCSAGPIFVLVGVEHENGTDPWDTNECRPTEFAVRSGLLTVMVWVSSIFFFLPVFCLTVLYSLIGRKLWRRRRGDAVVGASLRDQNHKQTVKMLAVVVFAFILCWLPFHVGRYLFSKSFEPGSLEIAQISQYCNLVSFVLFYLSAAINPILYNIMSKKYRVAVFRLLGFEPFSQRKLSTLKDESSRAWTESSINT
Summary of the method: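 Calcium flux read by ImageTrak epifluorescence in HEK293 cells stably expressing GHS-R1a, loaded 1 h at 37 °C with Calcium-3 dye; buffer HBSS/20 mM Hepes, pH 7.4, with probenecid and BSA. Agonists injected after 10 s baseline, read 50 s more; antagonists 3 min. Sigmoidal fits gave EC50 or IC50.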

[3] = Pharmacokinetic analysis (intravenous and oral), Method B9; format: in vivo; conditions: for Tmax: individual values; for Vd: read-out: Vz
Summary of the method: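 Compound concentration was typically 2 mg/mL for intravenous and 8 mg/mL for oral dosing. PK parameters such as elimination half-life and total plasma clearance were derived.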

[4] = Table 10b, 2 mg/mL intravenous and 8 mg/mL oral typically employed
[5] = Table 10b, 2 mg/mL intravenous typically employed
[6] = plasma, Oral, 8 mg/kg, read-out: Cmax
[7] = plasma, Table 10b, 2 mg/mL intravenous typically employed

CYP2D6, sequence (P10635 whole entry): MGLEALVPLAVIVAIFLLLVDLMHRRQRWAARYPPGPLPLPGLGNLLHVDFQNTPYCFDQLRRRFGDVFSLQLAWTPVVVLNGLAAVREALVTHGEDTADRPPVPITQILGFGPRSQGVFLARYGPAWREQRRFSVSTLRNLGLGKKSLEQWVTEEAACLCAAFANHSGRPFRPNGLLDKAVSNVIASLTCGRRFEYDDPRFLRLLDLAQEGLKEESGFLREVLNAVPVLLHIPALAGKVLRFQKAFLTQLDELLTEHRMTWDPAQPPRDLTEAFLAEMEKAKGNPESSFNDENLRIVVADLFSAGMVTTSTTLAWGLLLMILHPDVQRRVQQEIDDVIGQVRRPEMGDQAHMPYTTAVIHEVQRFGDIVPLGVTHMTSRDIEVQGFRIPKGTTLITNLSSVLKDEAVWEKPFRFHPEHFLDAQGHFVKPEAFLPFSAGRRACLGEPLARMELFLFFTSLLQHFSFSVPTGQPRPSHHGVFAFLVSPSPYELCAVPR
CYP3A4, sequence (P08684 whole entry): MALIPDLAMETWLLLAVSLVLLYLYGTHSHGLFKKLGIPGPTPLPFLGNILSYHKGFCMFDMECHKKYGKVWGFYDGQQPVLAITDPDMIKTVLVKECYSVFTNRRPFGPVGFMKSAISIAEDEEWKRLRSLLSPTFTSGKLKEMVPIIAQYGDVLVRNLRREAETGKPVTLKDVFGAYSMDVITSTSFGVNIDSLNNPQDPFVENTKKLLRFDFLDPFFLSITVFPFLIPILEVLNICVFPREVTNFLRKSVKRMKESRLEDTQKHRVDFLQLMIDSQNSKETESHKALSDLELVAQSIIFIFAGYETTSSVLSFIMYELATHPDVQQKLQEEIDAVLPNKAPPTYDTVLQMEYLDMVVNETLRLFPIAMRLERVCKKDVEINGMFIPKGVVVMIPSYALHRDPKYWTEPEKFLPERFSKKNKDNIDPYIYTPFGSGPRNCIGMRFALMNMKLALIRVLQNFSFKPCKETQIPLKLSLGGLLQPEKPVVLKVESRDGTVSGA

SMILES	IC50 (CYP3A4)	IC50 (CYP2D6)	IC50 [1] [µM]	Antagonist Activity [2]	% F [3, 4] [%]	Cl [3, 5] [mL/min/kg]	t1/2 [3, 5] [h]	also measured
Cc1cccc(C[C@H]2NC(=O)[C@H](C(C)O)N(C)C(=O)[C@H](C(C)C)NCCOc3ccccc3C[C@H](O)CNC2=O)c1 (some centres unmarked) [Compound 1453]	13.4 µM and 3.7 µM	9.21 µM and 9.2 µM	2.9	B (B = 1-10 nM)				
CC(C)[C@@H]1NCCOc2ccccc2C[C@H](O)[C@@H](C)NC(=O)[C@@H](Cc2cccc(F)c2)NC(=O)[C@H](C(C)O)N(C)C1=O (some centres unmarked) [Compound 1503]	14.3 µM	55.8 µM	0.65	B (B = 1-10 nM)				
CC[C@@H]1CCc2ccc(F)cc2OCCN[C@@H](C(C)C)C(=O)N(C)[C@@H](C(C)O)C(=O)N[C@H](Cc2c[nH]c3ccccc23)C(=O)N1 (some centres unmarked) [Compound 1505]	0.7 µM	2.1 µM	0.0125	B (B = 1-10 nM)				Oral F ([3]; in vivo, po): 18%; half-life ([3]; plasma): 1.07 h; clearance ([3]; plasma, intravenous): 23 mL/min/kg
CC(C)[C@@H]1NCCOc2ccccc2C#C[C@@H](C)NC(=O)[C@@H](Cc2ccccc2)NC(=O)[C@H](C(C)O)N(C)C1=O (some centres unmarked) [Compound 1688]	8.5 µM	20.2 µM	0.0001	A (A <1 nM)				
CC(C)C1NCCOc2ccccc2C#CCNC(=O)C(Cc2c[nH]c3ccccc23)NC(=O)C(C(C)O)N(C)C1=O (centres unmarked) [Compound 1692]				C (C = 10-100 nM)				
CC(C)C1NCCOc2cc(F)ccc2C#CCNC(=O)C(Cc2c[nH]c3ccccc23)NC(=O)C(C(C)O)N(C)C1=O (centres unmarked) [Compound 1693]				C (C = 10-100 nM)	5 ± 2	35 ± 18	0.683 ± 0.067	
CCC1CCc2ccc(F)cc2OCCNC(C2(C)CC2)C(=O)N(C)C(C(C)O)C(=O)NC(Cc2c[nH]c3ccccc23)C(=O)N1 (centres unmarked) [Compound 1703]				B (B = 1-10 nM)	12 ± 6	9 ± 6	2.45 ± 0.867	
CC[C@@H]1C#Cc2ccc(F)cc2O[C@H](C)CN[C@@H](C2(C)CC2)C(=O)N(C)[C@@H](C(C)O)C(=O)N[C@H](Cc2c[nH]c3ccccc23)C(=O)N1 (some centres unmarked) [Compound 1707]				B (B = 1-10 nM)		8 ± 4	2.17 ± 0.433	
CC(C)[C@@H]1NCCOc2ccccc2C#CCNC(=O)[C@@H](Cc2ccccc2)NC(=O)[C@H](C(C)O)N(C)C1=O (some centres unmarked) [Compound 1712]	5.8 µM		0.0034					F ([3]; Oral, 8 mg/kg): 15 ± 10%; Tmax ([3]; Oral, 8 mg/kg): 15/15/15; AUC(0-inf) ([3]; plasma, Intravenous, 2 mg/kg): 544 ng·h/mL; clearance ([3]; plasma, Intravenous, 2 mg/kg): 62 ± 10 mL/min/kg; half-life ([3]; plasma, Intravenous, 2 mg/kg): 2.3 ± 1.43 h; Vd ([3]; plasma, Intravenous, 2 mg/kg): 13.2 ± 9.57 L/kg; AUC(0-inf) ([3]; plasma, Oral, 8 mg/kg): 336 ng·h/mL; Cmax [3, 6]: 352 ± 297 ng/mL
CC(O)[C@H]1C(=O)N[C@H](Cc2c[nH]c3ccccc23)C(=O)N[C@H](C)C#Cc2ccccc2OCCN[C@@H](C2(C)CC2)C(=O)N1C (some centres unmarked) [Compound 1713]				B (B = 1-10 nM)	14 ± 9	30 ± 1	1.73 ± 0.417	
CC[C@@H]1C#Cc2ccccc2O[C@H](C)CN[C@@H](C2(C)CC2)C(=O)N(C)[C@@H](C(C)O)C(=O)N[C@H](Cc2c[nH]c3ccccc23)C(=O)N1 (some centres unmarked) [Compound 1718]				B (B = 1-10 nM)	17 ± 6	5 ± 1	2.7 ± 0.067	
CC(O)[C@H]1C(=O)N[C@H](Cc2c[nH]c3ccccc23)C(=O)N[C@H](C)CCc2ccc(F)cc2O[C@H](C)CN[C@@H](C2(C)CC2)C(=O)N1C (some centres unmarked) [Compound 1719]				C (C = 10-100 nM)		44 ± 3	1.55 ± 0.183	
CC(O)[C@H]1C(=O)N[C@H](Cc2c[nH]c3ccccc23)C(=O)N[C@H](C)C#Cc2ccc(F)cc2O[C@H](C)CN[C@@H](C2(C)CC2)C(=O)N1C (some centres unmarked) [Compound 1720]				B (B = 1-10 nM)		33 ± 12	1.17 ± 0.25	
CC[C@@H]1C#Cc2c(F)cccc2OCCN[C@@H](C(C)C)C(=O)N(C)[C@@H](C(C)O)C(=O)N[C@H](Cc2c[nH]c3ccccc23)C(=O)N1 (some centres unmarked) [Compound 1726]				B (B = 1-10 nM)	14 ± 8	9 ± 6	2.85 ± 0.267	
CC[C@@H]1CCc2ccc(F)cc2OCCN[C@@H](C2(C)CC2)C(=O)N(C)[C@@H](C(C)O)C(=O)N[C@H](Cc2ccccc2)C(=O)N1 (some centres unmarked) [Compound 1746]				B (B = 1-10 nM)	59 ± 31	12 ± 1	1.78 ± 0.067	
CC[C@@H]1CCc2ccc(F)cc2OCCN[C@@H](C(C)C)C(=O)N(C)[C@@H](C(C)O)C(=O)N[C@H](Cc2ccc(O)cc2)C(=O)N1 (some centres unmarked) [Compound 1751]				B (B = 1-10 nM)	34 ± 19	32 ± 5	0.767 ± 0.017	
CC[C@@H]1C#Cc2ccccc2OCCN[C@@H](C(C)C)C(=O)N(C)[C@@H](C(C)O)C(=O)N[C@H](Cc2c[nH]c3ccccc23)C(=O)N1 (some centres unmarked) [Compound 1754]				B (B = 1-10 nM)	39 ± 44	8 ± 1	1.77 ± 0.217	
CC[C@@H]1C#Cc2ccc(F)cc2OCCN[C@@H](C(C)C)C(=O)N(C)[C@@H](C(C)O)C(=O)N[C@H](Cc2c[nH]c3ccccc23)C(=O)N1 (some centres unmarked) [Compound 1755]				B (B = 1-10 nM)	7 ± 4	12 ± 13	2.05 ± 0.467	
CC(C)[C@@H]1NCC2CCc3cccc(c3O2)CCCNC(=O)[C@@H](Cc2ccccc2)NC(=O)[C@H](C(C)O)N(C)C1=O (some centres unmarked) [Compound 1777]			0.0078	B (B = 1-10 nM)				AUCinf ([3]; Intravenous, 2 mg/kg): 369904 ± 127112 ng·min/mL; Cl ([3]; Intravenous, 2 mg/kg): 6 ± 2 mL/min/kg; Vz ([3]; Intravenous, 2 mg/kg): 0.882 ± 0.272 L/kg; t1/2 ([3]; Intravenous, 2 mg/kg): 1.78 ± 0.067 h; AUCinf ([3]; Oral, 8 mg/kg): 190433 ± 114760 ng·min/mL; Cmax ([3]; Oral, 8 mg/kg): 1075 ± 772 ng/mL; F ([3]; Oral, 8 mg/kg): 13 ± 8%; Tmax ([3]; Oral, 8 mg/kg): 15/30/15/15/15/15
CC(O)[C@H]1C(=O)N[C@H](Cc2ccccc2)C(=O)NCCCc2cccc3c2OC(CC3)CN[C@@H](C2CC2)C(=O)N1C (some centres unmarked) [Compound 1778]	7.7 µM	21.1 µM	0.012	B (B = 1-10 nM)				clearance [3, 7]: 26 ± 18 mL/min/kg; half-life [3, 7]: 0.983 ± 0.633 h
CC[C@@H]1NCC2CCc3cccc(c3O2)CCCNC(=O)[C@@H](Cc2ccccc2)NC(=O)[C@H](C(C)O)N(C)C1=O (some centres unmarked) [Compound 1780]	6 µM	35.7 µM	0.0121	B (B = 1-10 nM)				
CC(C)[C@@H]1NCCOc2ccccc2C2CCC(C2)NC(=O)[C@@H](Cc2c[nH]c3ccccc23)NC(=O)[C@H](C(C)O)N(C)C1=O (some centres unmarked) [Compound 1843]			0.0023	A (A <1 nM)				
CC(C)[C@@H]1NCCOc2ccccc2C2CCC(C2)NC(=O)[C@@H](Cc2ccccc2)NC(=O)[C@H](C(C)O)N(C)C1=O (some centres unmarked) [Compound 1848]	8 µM	14.1 µM	0.015	A (A <1 nM)				F ([3]; Oral, 8 mg/kg): 11 ± 2%; Tmax ([3]; Oral, 8 mg/kg): 30/30; AUC(0-inf) ([3]; plasma, Intravenous, 2 mg/kg): 2600 ng·h/mL; clearance ([3]; plasma, Intravenous, 2 mg/kg): 17 ± 9 mL/min/kg; half-life ([3]; plasma, Intravenous, 2 mg/kg): 1.8 ± 0.85 h; Vd ([3]; plasma, Intravenous, 2 mg/kg): 2.55 ± 1.47 L/kg; AUC(0-inf) ([3]; plasma, Oral, 8 mg/kg): 1110 ng·h/mL; Cmax [3, 6]: 421 ± 16 ng/mL
CC(O)[C@H]1C(=O)N[C@H](Cc2ccccc2)C(=O)NCC#Cc2c(F)cccc2OCCN[C@@H](C2(C)CC2)C(=O)N1C (some centres unmarked) [Compound 1876]	8.5 µM	23.1 µM	0.06	A (A <1 nM)				bioavailability ([3]; plasma, Table 10b, 2 mg/mL intravenous and 8 mg/mL oral typically employed): 54 ± 19%; clearance [3, 7]: 28 ± 8 mL/min/kg; half-life [3, 7]: 2.65 ± 0.267 h
CC(C)[C@@H]1NCCOc2ccccc2C2CCC(C2)NC(=O)[C@@H](Cc2ccc(F)cc2)NC(=O)[C@H](C(C)O)N(C)C1=O (some centres unmarked) [Compound 1903]	9 µM	8 µM	0.0016	A (A <1 nM)				
CC(C)[C@@H]1NCCOc2cccc(F)c2C#CCNC(=O)[C@@H](Cc2ccccc2)NC(=O)[C@H](C(C)O)N(C)C1=O (some centres unmarked) [Compound 1929]		25.7 µM	0.002	B (B = 1-10 nM)				F ([3]; Oral, 8 mg/kg): 42 ± 51%; Tmax ([3]; Oral, 8 mg/kg): 15/15/30; AUC(0-inf) ([3]; plasma, Intravenous, 2 mg/kg): 1060 ng·h/mL; clearance ([3]; plasma, Intravenous, 2 mg/kg): 32 ± 4 mL/min/kg; half-life ([3]; plasma, Intravenous, 2 mg/kg): 2.83 ± 1.03 h; Vd ([3]; plasma, Intravenous, 2 mg/kg): 7.99 ± 3.7 L/kg; AUC(0-inf) ([3]; plasma, Oral, 8 mg/kg): 1790 ng·h/mL; Cmax [3, 6]: 628 ± 766 ng/mL
